Where “and” joins values, the source holds several entries; their conditions need not be identical. Equal values may be shown once. Read-outs that look alike come from different tables or passages of the source.
Key:
[1] = tested on: P-glycoprotein; test: [3H]azidopine photolabelling of Pgp in EHR2/DNR+ cells; type: binding, mice; conditions: [3H]AZP 0.4 µM
Source text: (§1) Br. J. Cancer (1993), 67, 226 231 ? Macmillan Press Ltd., 1993 Effect of anthracycline analogs on photolabelling of p-glycoprotein by I'25 liodomycin and [3Hlazidopine: Relation to lipophilicity and inhibition of daunorubicin transport in multidrug resistant cells E. Frichel*, E.J.F. Demant2, M. Sehested3 & N.I. Nissen' 'Department of Medicine and Hematology, L 4042, Rigshospitalet-University Hospital, 9, Blegdamsvej, DK-2100 Copenhagen; 2Department of Biochemistry C, The Panum Institute, University of Copenhagen, DK-2200 Copenhagen; 3Department of Pathology, Sundby Hospital, DK-2300 Copenhagen, Denmark. […] We photoaffinity labelled P-glycoprotein in daunorubicin (DNR) resistant Ehrlich ascites tumour cells (EHR2/DNR + ) with a ['25I]iodinated Bolton-Hunter derivative of daunorubicin ([1251]iodomycin) and with [3H]azidopine. […] Anthracyclines are among the most valuable cytostatic agents in clinical use. Their usefulness is, however, limited by the occurrence of tumour cells with the multidrug resistance (MDR) phenotype (Beck, 1987; Bliek & Borst, 1989; Endicott & Ling, 1989; Kaye & Merry, 1985; Moscow & Cowan, 1988). MDR cells have an enhanced amount of a 150- 170 kDa plasma membrane glycoprotein, P-glycoprotein (Pgp) (Kartner et al., 1983 and 1985; Cornwell et al., 1986; Bradley et al., 1988; Beck, 1991a; Roninson, 1991), that may function as a low-specificity transport protein to facilitate the outward transport of cytotoxic agents including the anthracyclines. Thus, increased drug efflux and therefore decreased accumulation is seen in MDR cells not only to the drug for which resistance is developed but also to a wide spectrum of chemically unrelated cytostatics (Bradley et al., 1988; Fojo et al., 1985). […] The aim of this study was to examine these analogs for their ability to com- pete for ligand binding to Pgp and thus service as inhibitors for the outward drug transport system in MDR cells. Anthracycline inter-actions with Pgp were assessed using the specific photolabelling of the protein with [251I]iodomycin, a ['251]iodinated Bolton-Hunter derivative of DNR (Busche et al., 1989a) and with [3H]azidopine ([3H]AZP) which photolabels Pgp in plasma membrane vesicles from EHR2/ DNR + cells (Sehested et al., 1990) as well as in whole cells (Safa et al., 1987; Friche et al., 1990c). […] Material and methods Chemicals Duanorubicin (DNR); AdriamycinR (Doxorubicin/HCl, DOX); 4'-deoxy-4'-iododoxorubicin (DIDOX); and 4- demethoxy-DNR were kindly supplied from Farmitalia, Carlo Erba (Milan, Italy). N,N-dibenzyl-DNR was a gift from Dr Nicholas Bachur, (Baltimore, MD) and N- benzyladriamycin-14-valerate (AD 198) a gift from Professor M. Israel (Memphis, TN). Mitoxantrone was purchased from Lederle (New Jersey, USA), Aclacinomycin A from Lund- beck & Co A/S (Copenhagen, Denmark), OncovinR (Vincristine/HCl, VCR) from Eli Lilly Deutschland GMBH (Giessen, Germany), Cremophor EL from BASF Aktiengesellschaft (Ludwigshafen, Germany), and Tween 80 from the Sigma Chemical Co. (St. Louis, MO). ['251]-Bolton- Hunter reagent (2000 Ci mmol 1), [3H]AZP (42 Ci mmol- ') and non-radioactive AZP were purchased from Amersham International (Amersham, UK). All other chemicals were of analytical grade. Organic solvents were distilled prior to use. Triethylamine was distilled over ninhydrin and anhydrous methanol was stored over molecular sieve (3 A). Tumour cells Cells were either the wild-type Ehrlich ascites tumor line (EHR2) or the corresponding DNR-resistant line (EHR2/ DNR + ) (Dan0, 1971) displaying both the MDR phenotype (Sehested et al., 1990) and as recently shown, decreased Correspondence: E. Friche. Received 22 April 1992; and in revised form 21 September 1992.

[2] = tested on: P-glycoprotein; test: [125I]iodomycin photolabelling of Pgp in EHR2/DNR+ cells; type: binding, mice
Source text: as §1

[3] = pH 7.45
Source text: as §1

[4] = tested on: EHR2/DNR+ cells; test: Modulating effect on steady-state DNR accumulation in EHR2/DNR+ cells; type: cell-based, mice; conditions: equimolar concentrations (5 µM)
Source text: (§2) Br. J. Cancer (1993), 67, 226 231 ? Macmillan Press Ltd., 1993 Effect of anthracycline analogs on photolabelling of p-glycoprotein by I'25 liodomycin and [3Hlazidopine: Relation to lipophilicity and inhibition of daunorubicin transport in multidrug resistant cells E. Frichel*, E.J.F. Demant2, M. Sehested3 & N.I. Nissen' 'Department of Medicine and Hematology, L 4042, Rigshospitalet-University Hospital, 9, Blegdamsvej, DK-2100 Copenhagen; 2Department of Biochemistry C, The Panum Institute, University of Copenhagen, DK-2200 Copenhagen; 3Department of Pathology, Sundby Hospital, DK-2300 Copenhagen, Denmark. […] We photoaffinity labelled P-glycoprotein in daunorubicin (DNR) resistant Ehrlich ascites tumour cells (EHR2/DNR + ) with a ['25I]iodinated Bolton-Hunter derivative of daunorubicin ([1251]iodomycin) and with [3H]azidopine. […] Anthracyclines are among the most valuable cytostatic agents in clinical use. […] Anthracycline inter-actions with Pgp were assessed using the specific photolabelling of the protein with [251I]iodomycin, a ['251]iodinated Bolton-Hunter derivative of DNR (Busche et al., 1989a) and with [3H]azidopine ([3H]AZP) which photolabels Pgp in plasma membrane vesicles from EHR2/ DNR + cells (Sehested et al., 1990) as well as in whole cells (Safa et al., 1987; Friche et al., 1990c). […]

[5] = tested on: Pgp; conditions: read-out: Kd for binding to Pgp, cited from earlier work
[6] = tested on: EHR2/DNR+ cells; conditions: ref Friche et al., cited from earlier work
[7] = tested on: Pgp; parameters: method as in Safa et al. (1987); conditions: ref Safa et al., 1987; cited from earlier work
[8] = tested on: EHR2/DNR+ cells; test: Steady-state drug accumulation in EHR2 and EHR2/DNR+ cells; type: cell-based, mice
Source text: as §2, with “use. Their usefulness is, however, limited by the occurrence of tumour cells with the multidrug resistance (MDR) phenotype (Beck, 1987; Bliek & Borst, 1989; Endicott & Ling, 1989; Kaye & Merry, 1985; Moscow & Cowan, 1988). MDR cells have an enhanced amount of a 150- 170 kDa plasma membrane glycoprotein, P-glycoprotein (Pgp) (Kartner et al., 1983 and 1985; Cornwell et al., 1986; Bradley et al., 1988; Beck, 1991a; Roninson, 1991), that may function as a low-specificity transport protein to facilitate the outward transport of cytotoxic agents including the anthracyclines.” for “use.”

[9] = 40 µM drug (100-fold molar excess)
[10] = 10 µM drug (1000-fold molar excess), iodomycin 10 nM, 30 min 37°C
[11] = 5 µM modulator (500-fold molar excess)

Structure (SMILES) | Per cent inhibition of [3H]AZP photolabelling of Pgp ([1]; 10 µM drug) [%] | Per cent inhibition of [3H]AZP photolabelling of Pgp ([1]; 20 µM drug) [%] | Per cent inhibition of [3H]AZP photolabelling of Pgp [1, 9] [%] | Per cent inhibition of [125I]iodomycin photolabelling of Pgp [2, 10] | Per cent inhibition of [125I]iodomycin photolabelling of Pgp ([2]; 20 µM drug, iodomycin 10 nM) [%] | Per cent inhibition of [125I]iodomycin photolabelling of Pgp ([2]; 40 µM drug, iodomycin 10 nM) [%] | Lipid solubility (O/W), octanol/water partition coefficient [3] | further results
CC(=O)[C@]1(O)Cc2c(O)c3c(c(O)c2[C@@H](O[C@H]2C[C@H](N)[C@H](O)[C@H](C)O2)C1)C(=O)c1ccccc1C3=O [4-demethoxy-daunorubicin] | 1.5 | 3.6 | 19.8 | 35.9% | 52.2 | 58.3 | 13.08 | 
CCCCC(=O)OCC(=O)[C@]1(O)Cc2c(O)c3c(c(O)c2[C@@H](O[C@H]2C[C@H](NCc4ccccc4)[C@H](O)[C@H](C)O2)C1)C(=O)c1c(OC)cccc1C3=O [AD-198, N-benzyladriamycin-14-valerate] | 74.1 | 81.7 | 90.9 | 85% | 95.8 | > 99 | > 200 | Per cent inhibition of [3H]AZP photolabelling of Pgp ([1]; 40 µM drug (100-fold molar excess), listed as Ad-198): about 90%
CC[C@@]1(O)C[C@H](O[C@H]2C[C@H](N(C)C)[C@H](O[C@H]3C[C@H](O)[C@H](O[C@H]4CCC(=O)[C@H](C)O4)[C@H](C)O3)[C@H](C)O2)c2c(cc3c(c2O)C(=O)c2c(O)cccc2C3=O)[C@H]1C(=O)OC [Aclacinomycin A] | 65.3 | 74.7 | 85.7 | 22.6% | 52.0 | 75.3 |  | Effect on accumulation of DNR [4]: did increase accumulation of DNR the most
CCOC(=O)C1=C(C)NC(C)=C(C(=O)OCCNC(=O)c2ccc(N=[N+]=[N-])cc2)C1c1ccccc1C(F)(F)F (stereo not drawn) [Azidopine] |  |  |  | 67.9% |  |  |  | Per cent inhibition of [125I]iodomycin photolabelling of Pgp ([2]; 1 µM modulator): 6.7%; Per cent inhibition of [125I]iodomycin photolabelling of Pgp ([2]; 1 µM modulator, listed as AZP): hardly inhibited; Per cent inhibition of [125I]iodomycin photolabelling of Pgp [2, 11]: 50.0%; Per cent inhibition of [125I]iodomycin photolabelling of Pgp ([2]; 5 µM modulator (500-fold molar excess), listed as AZP): 50%; Kd ([5]; ref Safa et al., 1987): 1000 nM
COc1cccc2c1C(=O)c1c(O)c3c(c(O)c1C2=O)C[C@@](O)(C(=O)CO)C[C@@H]3O[C@H]1C[C@H](N)[C@H](I)[C@H](C)O1 [DIDOX, 4'-deoxy-4'-iododoxorubicin] | 0 | 0 | 19.7 | 20.6% | 17.5 | 22.5 | 14.51 | Effect on accumulation of DNR ([6]; 1990b, Arcamone, 1985): did not increase DNR accumulation
COc1cccc2c1C(=O)c1c(O)c3c(c(O)c1C2=O)C[C@@](O)(C(=O)CO)C[C@@H]3O[C@H]1C[C@H](N)[C@H](O)[C@H](C)O1 [Doxorubicin] | 0 | 10.5 | 11.0 | 0% | 0 | 16.8 | 1.22 | Per cent inhibition of [3H]AZP photolabelling of Pgp ([1]; 40 µM drug (100-fold molar excess), listed as DOX): 10-17%; Per cent inhibition of [125I]iodomycin photolabelling of Pgp ([2]; 10 µM drug (1000-fold molar excess), iodomycin 10 nM, 30 min 37°C, listed as DOX): did not cause significant inhibition; Per cent inhibition of [125I]iodomycin photolabelling of Pgp ([2]; 40 µM drug, iodomycin 10 nM, listed as DOX): 17% and 10-17%; Effect on accumulation of DNR ([6]; 1990a): does not increase accumulation of DNR; Inhibition of [3H]AZP labelling of Pgp [7]: 19%
O=C1c2c(O)ccc(O)c2C(=O)c2c(NCCNCCO)ccc(NCCNCCO)c21 [Mitoxantrone] | 7.5 | 15.6 | 19.5 | 42.9% | 56.9 | 58.8 | 5.06 | 
COc1cccc2c1C(=O)c1c(O)c3c(c(O)c1C2=O)C[C@@](O)(C(C)=O)C[C@@H]3OC1CC(N(Cc2ccccc2)Cc2ccccc2)C(O)C(C)O1.Cl (stereo partly drawn) [N,N,-dibenzyl-daunorubicin] | 75.2 | 87.1 | 90.5 | 52.4% | 97.3 | > 99 | > 200 | Per cent inhibition of [3H]AZP photolabelling of Pgp ([1]; 40 µM drug (100-fold molar excess), listed as N,N-dibenzyl-DNR): about 90%; Per cent inhibition of [125I]iodomycin photolabelling of Pgp ([2]; 20 µM drug, iodomycin 10 nM, listed as N,N-dibenzyl-DNR): 97%; Effect on accumulation of DNR [4]: did increase accumulation of DNR the most
CC[C@]1(O)C[C@H]2CN(CCc3c([nH]c4ccccc34)[C@@](C(=O)OC)(c3cc4c(cc3OC)N(C=O)[C@H]3[C@@](O)(C(=O)OC)[C@H](OC(C)=O)[C@]5(CC)C=CCN6CC[C@]43[C@@H]65)C2)C1 [Vincristine] |  |  |  | 95% and 94.3% |  |  | 1.98 | Per cent inhibition of [125I]iodomycin photolabelling of Pgp ([2]; 1 µM modulator): 53.1%; Per cent inhibition of [125I]iodomycin photolabelling of Pgp ([2]; 1 µM modulator, listed as VCR): about 50%; Per cent inhibition of [125I]iodomycin photolabelling of Pgp [2, 11]: 78.6%; Per cent inhibition of [125I]iodomycin photolabelling of Pgp ([2]; 10 µM drug (1000-fold molar excess), iodomycin 10 nM, 30 min 37°C, listed as VCR): almost completely blocked
COc1cccc2c1C(=O)c1c(O)c3c(c(O)c1C2=O)CC(O)(C(C)=O)CC3OC1CC(NC(=O)CCc2ccc(O)c(I)c2)C(O)C(C)O1 (stereo not drawn) [[125I]iodomycin] |  |  |  |  |  |  |  | Reduced steady-state accumulation in EHR2/DNR+ relative to EHR2 [8]: ~5 fold; Steady-state accumulation ([8]; EHR2/DNR+ cells): 42 fmol 10-6 cells; Steady-state accumulation ([8]; EHR2 cells (wild type)): 207 fmol 10-6 cells; Kd ([5]; ref Busche et al., 1989b): 25 nM

Source: publication PMC1968196, “Effect of anthracycline analogs on photolabelling of p-glycoprotein by [125I]iodomycin and [3H]azidopine: relation to lipophilicity and inhibition of daunorubicin transport in multidrug resistant cells” (British Journal of Cancer, 1993)
